# Test results taken from ChEMBL document CHEMBL3259634, “Novel benzopolycyclic amines with NMDA receptor antagonist activity” (Bioorg Med Chem, 2014).
# Molecular target: Glutamate NMDA receptor
# Assay: Antagonist activity at NMDA receptor in primary culture of rat cerebellar granule neurons assessed as inhibition of NMDA-induced intracellular calcium level by fluorescence spectrophotometric analysis
# Format: cell-based
row,SMILES,IC50
1,NC12CC3CC(O)(CC(C1)c1ccccc13)C2,16.2 µM
2,CN(C)C12CC3CC(O)(CC(C1)c1ccccc13)C2,71.1 µM
3,NC12CC3CC(F)(CC(C1)c1ccccc13)C2,1.93 µM
4,CN(C)C12CC3CC(F)(CC(C1)c1ccccc13)C2,16.5 µM
5,COC12CC3CC(N)(CC(C1)c1ccccc13)C2,24.3 µM
6,NC12CC3CC(C1)c1ccccc1C(C3)C2,0.7 µM
7,CN(C)C12CC3CC(C1)c1ccccc1C(C3)C2,2.3 µM
